# Results: PMC5222732 (Journal of medicinal chemistry, 2016)
# Values joined by “and” are separate entries in the source; they are usually repeats but may differ in a detail not shown here. Equal entries are not always repeated. Where two headings read alike, the source gives them in different places.
# Assays:
# δ receptors (DOR) = δ receptors (DOR) (Rattus norvegicus, UniProt P33533); assay: δ opioid receptor binding, [3H]DSLET displacement from rat brain membranes; details: compared with cyclodal
# μ opioid receptor (MOR) [1] = format: cell-based, guinea pig
# [2] = biological target: mouse vas deferens (MVD), DOR (Mus musculus, UniProt P32300); assay: DOR-representative MVD functional assay; format: cell-based
# κ opioid receptor (KOR) = κ opioid receptor (KOR) (Cavia porcellus, UniProt P41144); assay: GPI functional assay, κ antagonist Ke; format: cell-based, guinea pig
# μ opioid receptor (MOR) [3] = biological target: μ opioid receptor (MOR) (Rattus norvegicus, UniProt P33535); format: binding
# Sprague-Dawley rats [4] = assay: Hot plate algesia test; format: in vivo; details: rat; for effect on morphine analgesia, heat withdrawal threshold (hot plate): morphine 4 mg/kg sc
# [5] = In vivo brain uptake study, LC-MS/MS
# [6] = biological target: bovine serum albumin (BSA) (Bos taurus, UniProt P02769); assay: Determination of serum albumin binding; format: in vitro ADME; details: BSA 20 mg/mL, pH 7.4, 37 °C, 24-96 h
# Plasma stability assay = format: in vitro ADME; details: 37 °C
# Sprague-Dawley rats [7] = assay: Tail heat algesia test; format: in vivo; details: rat, 1 mg/kg iv, morphine 4 mg/kg sc
# Sequence of mouse vas deferens (MVD), DOR (P32300 whole entry): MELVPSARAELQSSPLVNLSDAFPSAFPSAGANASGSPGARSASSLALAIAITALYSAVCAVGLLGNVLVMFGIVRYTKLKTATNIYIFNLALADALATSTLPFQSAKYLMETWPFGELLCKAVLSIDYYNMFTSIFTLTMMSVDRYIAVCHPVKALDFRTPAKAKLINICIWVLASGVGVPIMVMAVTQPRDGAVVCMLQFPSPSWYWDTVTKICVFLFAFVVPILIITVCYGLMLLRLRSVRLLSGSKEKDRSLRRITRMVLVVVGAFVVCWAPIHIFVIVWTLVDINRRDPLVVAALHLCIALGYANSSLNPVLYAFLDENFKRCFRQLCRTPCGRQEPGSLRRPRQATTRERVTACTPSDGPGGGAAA
# Sequence of κ opioid receptor (KOR) (P41144 whole entry): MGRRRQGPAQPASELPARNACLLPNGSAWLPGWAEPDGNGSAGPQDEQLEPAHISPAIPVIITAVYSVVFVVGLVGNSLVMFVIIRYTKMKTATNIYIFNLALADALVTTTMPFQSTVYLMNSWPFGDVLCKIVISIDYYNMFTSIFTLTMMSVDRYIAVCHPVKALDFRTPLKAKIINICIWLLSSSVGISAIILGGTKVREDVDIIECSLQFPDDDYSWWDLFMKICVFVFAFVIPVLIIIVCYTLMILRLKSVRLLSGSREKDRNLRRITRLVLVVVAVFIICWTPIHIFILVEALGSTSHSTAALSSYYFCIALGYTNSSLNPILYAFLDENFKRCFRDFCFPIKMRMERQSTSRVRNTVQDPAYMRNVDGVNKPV
# Sequence of μ opioid receptor (MOR) (Rattus norvegicus, UniProt P33535) (P33535 whole entry): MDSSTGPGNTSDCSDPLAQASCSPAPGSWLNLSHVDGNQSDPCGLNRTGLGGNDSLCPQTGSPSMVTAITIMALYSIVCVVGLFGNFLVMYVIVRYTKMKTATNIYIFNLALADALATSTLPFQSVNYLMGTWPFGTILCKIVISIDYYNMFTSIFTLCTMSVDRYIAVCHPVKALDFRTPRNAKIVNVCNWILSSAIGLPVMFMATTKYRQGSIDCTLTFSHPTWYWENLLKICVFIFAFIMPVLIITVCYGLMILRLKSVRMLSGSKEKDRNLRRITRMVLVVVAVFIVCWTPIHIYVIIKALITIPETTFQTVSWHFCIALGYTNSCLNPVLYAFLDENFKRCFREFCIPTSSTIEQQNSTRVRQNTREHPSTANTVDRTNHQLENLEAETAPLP
# Sequence of bovine serum albumin (BSA) (P02769 25-607): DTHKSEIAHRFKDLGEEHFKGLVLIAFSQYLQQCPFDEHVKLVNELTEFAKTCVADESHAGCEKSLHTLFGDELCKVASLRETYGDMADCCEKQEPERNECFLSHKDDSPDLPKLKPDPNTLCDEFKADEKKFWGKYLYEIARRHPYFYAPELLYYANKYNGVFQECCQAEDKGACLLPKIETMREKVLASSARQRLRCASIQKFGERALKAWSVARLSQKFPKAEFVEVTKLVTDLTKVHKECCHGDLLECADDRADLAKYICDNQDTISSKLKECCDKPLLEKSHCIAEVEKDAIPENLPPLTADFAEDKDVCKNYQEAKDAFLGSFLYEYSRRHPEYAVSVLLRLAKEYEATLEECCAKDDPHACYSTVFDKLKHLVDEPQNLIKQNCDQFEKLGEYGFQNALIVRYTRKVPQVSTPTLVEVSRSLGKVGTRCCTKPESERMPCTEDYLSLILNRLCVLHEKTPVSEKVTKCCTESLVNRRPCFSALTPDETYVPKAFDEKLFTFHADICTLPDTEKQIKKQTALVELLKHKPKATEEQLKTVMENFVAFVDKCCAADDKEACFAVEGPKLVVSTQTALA
# Sequence of δ receptors (DOR) (P33533 whole entry): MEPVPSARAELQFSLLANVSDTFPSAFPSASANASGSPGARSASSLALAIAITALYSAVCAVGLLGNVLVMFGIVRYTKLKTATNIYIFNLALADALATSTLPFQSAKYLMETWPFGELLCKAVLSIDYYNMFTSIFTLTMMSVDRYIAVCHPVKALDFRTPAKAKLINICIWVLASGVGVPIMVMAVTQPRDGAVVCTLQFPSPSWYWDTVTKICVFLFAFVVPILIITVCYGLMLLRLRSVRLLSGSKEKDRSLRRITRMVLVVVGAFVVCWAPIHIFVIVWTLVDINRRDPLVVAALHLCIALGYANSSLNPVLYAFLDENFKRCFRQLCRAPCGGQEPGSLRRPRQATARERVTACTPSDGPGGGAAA
smiles,measurement,setting,value
"Cc1cc(O)cc(C)c1C[C@@H]1NC(=O)C[C@H](CCCCN)NC(=O)[C@H](Cc2ccccc2)NC(=O)[C@@H](CCCNC(=N)N)NC1=O [compound 7, c[-D-Arg-Phe-β-hLys-Dmt-]]",lower DOR binding affinity,δ receptors (DOR),11 fold
same,GPI Ke^μ,μ opioid receptor (MOR) [1],10.5 ± 1.1 nM
same,MVD IC50,[2],inactive
same,Kb,κ opioid receptor (KOR),18.2 ± 1.7 nM
same,more potent KOR antagonist,κ opioid receptor (KOR),2 fold
same,Ki ratio μ/δ/κ,μ opioid receptor (MOR) [3],1/135/6
same,reduced/lower MOR binding affinity,μ opioid receptor (MOR) [3],2 fold
"CN1CC[C@]23c4c5ccc(O)c4O[C@H]2[C@@H](O)C=C[C@H]3[C@H]1C5 [morphine, reference compound]","analgesia, heat withdrawal threshold (hot plate)","Sprague-Dawley rats [4]; 4 mg/kg sc, compared to vehicle",produced analgesia compared to vehicle at the 30 and 60 min time points
"CCCC[C@@H]1NC(=O)[C@H](Cc2ccccc2)NC(=O)[C@@H](CCCNC(=N)N)NC(=O)[C@H](Cc2c(C)cc(O)cc2C)NC1=O [compound 4, c[-D-Arg-Phe-Nle-Dmt-]]",activity in the MVD assay,[2],low efficacy partial agonist activity
"Cc1cc(O)cc(C)c1C[C@@H]1NC(=O)[C@H](CCCCN)NC(=O)[C@H](Cc2ccccc2)NC(=O)[C@@H](CCCNC(=N)N)NC1=O [compound 1, c[-D-Arg-Phe-Lys-Dmt-]]",plasma AUC,"[5]; male CD1 mice, 2 mg/kg iv",0.0303 µg·min/mL
same,time of maximum brain concentration,"[5]; mice, 2 mg/kg iv, after administration",30 min
same,GPI Ke (MOR antagonist),μ opioid receptor (MOR) [1],3.12 ± 0.20 nM and 3.06 ± 0.62 nM
same,GPI Ke^μ,μ opioid receptor (MOR) [1],3.26 ± 0.84 nM
same,BSA absorption,[6],No decrease in peptide peak intensity was observed
same,stability in rat plasma,Plasma stability assay,stable for up to 48 h
same,activity in the MVD assay,[2],low efficacy partial agonist activity
same,activity in the MVD assay,[2]; listed as cyclodal,weak DOR partial agonist
same,Kb,"κ opioid receptor (KOR); GPI Ke (KOR antagonist), against dynorphin A(1-13)",206 ± 24 nM
same,Kb,"κ opioid receptor (KOR); GPI Ke^κ, determined against U50,488",40.3 ± 2.6 nM
same,"effect on morphine analgesia, heat withdrawal threshold (hot plate)",Sprague-Dawley rats [4]; 1 mg/kg iv,not at the 1 mg/kg dose
same,"effect on morphine analgesia, heat withdrawal threshold (hot plate)",Sprague-Dawley rats [4]; 5 mg/kg iv,morphine analgesia at the 30 min time point was reduced
same,effect on tail withdrawal latency (TWL) after morphine,Sprague-Dawley rats [7],not at a dose of 1 mg/kg
same,higher MOR binding affinity,μ opioid receptor (MOR) [3],20 fold
"Cc1cc(O)cc(C)c1C[C@H](N)C(=O)N[C@H](CCCNC(=N)N)C(=O)N[C@@H](Cc1ccccc1)C(=O)N[C@@H](CCCCN)C(N)=O [compound 9, H-Dmt-D-Arg-Phe-Lys-NH2]",brain AUC,"[5]; male CD1 mice, 2 mg/kg iv",0.352 µg·min/g
same,AUC,"[5]; male, CD1, mouse, in vivo, iv, 2 mg/kg",83 ng·h/mL
same,BSA absorption,[6],No decrease in peptide peak intensity was observed
"C[C@@H](O)[C@H](NC(=O)[C@H]1NC(=O)[C@H]([C@@H](C)O)NC(=O)[C@H](CCCN)NC(=O)[C@@H](Cc2c[nH]c3ccccc23)NC(=O)[C@H](Cc2ccc(O)cc2)NC(=O)[C@@H](NC(=O)[C@H](N)Cc2ccccc2)CSSC1(C)C)C(N)=O [compound 10, H-D-Phe-c[Cys-Tyr-D-Trp-Orn-Thr-Pen]-Thr-NH2, reference compound]",GPI Ke^μ,μ opioid receptor (MOR) [1],40.9 ± 2.7 nM
same,activity in the MVD assay,[2],low efficacy partial agonist activity
same,Kb,κ opioid receptor (KOR),6940 ± 580 nM
"Cc1cc(O)cc(C)c1C[C@@H]1NC(=O)[C@H](CCCN)NC(=O)[C@H](Cc2ccccc2)NC(=O)[C@@H](CCCNC(=N)N)NC1=O [compound 6, c[-D-Arg-Phe-Orn-Dmt-]]",GPI Ke^μ,μ opioid receptor (MOR) [1],16.8 ± 2.6 nM
same,activity in the MVD assay,[2],low efficacy partial agonist activity
